Converted amounts (≈) assume the structure as drawn.
Experiments:
Escherichia coli [1] = test: Inhibition of protein synthesis in Escherichia coli S30 extracts by coupled transcription-translation assay; assay type: functional; settings: Escherichia coli
Escherichia coli [2] = test: microbe, parasite or virus in culture; settings: ATCC 25922
Description: Antibacterial activity against Escherichia coli ATCC 25922

[3] = Cytotoxicity against CEM T cells after 72 hrs by proliferation assay; assay type: cell-based, CCRF-CEM; settings: human, CCRF-CEM (CEM) T cells
Staphylococcus aureus = test: microbe, parasite or virus in culture; settings: ATCC 25923
Description: Antibacterial activity against Staphylococcus aureus ATCC 25923

Pseudomonas aeruginosa = test: Antibacterial activity against Pseudomonas aeruginosa ATCC 27853; assay type: functional
Escherichia coli [4] = test: Antibacterial activity against wild type impermeable Escherichia coli LMG194; assay type: functional
Escherichia coli [5] = test: Antibacterial activity against isogenic permeable mutant Escherichia coli LMG194; assay type: functional

Row | SMILES | IC50 (Escherichia coli [1]) [µM] | MIC (Escherichia coli [2]) [µg/mL] | MIC (Staphylococcus aureus) [µg/mL] | MIC (Pseudomonas aeruginosa) [µg/mL] | CC50 at 72 h [3] [µM] | MIC (Escherichia coli [4]) [µg/mL] | MIC (Escherichia coli [5]) [µg/mL]
1 | N[C@@H]1C[C@H](N)CN(c2nc(Nc3ccc(-c4ccccc4)cc3)nc(N3C[C@H](N)C[C@H](N)C3)n2)C1 | 9 | 16 (≈ 33.7 µM) | – | – | – | – | –
2 | COc1ccc(Nc2nc(N3C[C@H](N)C[C@H](N)C3)nc(N3C[C@H](N)C[C@H](N)C3)n2)cc1 | 14 | > 64 | > 64 | – | – | > 64 | –
3 | COc1cccc(Nc2nc(N3C[C@H](N)C[C@H](N)C3)nc(N3C[C@H](N)C[C@H](N)C3)n2)c1NC(=O)c1ccc(Cl)cc1O | 30 | > 64 | – | – | – | – | –
4 | N[C@@H]1C[C@H](N)CN(c2nc(Nc3ccc(Cl)c(Cl)c3)nc(N3C[C@H](N)C[C@H](N)C3)n2)C1 | 7 | 32 (≈ 68.5 µM) | – | – | – | – | –
5 | N[C@@H]1C[C@H](N)CN(c2nc(Nc3ccc(C(=O)CC(=O)Nc4cccc(Br)c4)cc3)nc(N3C[C@H](N)C[C@H](N)C3)n2)C1 | 5 | 2 (≈ 3.13 µM) | 16 (≈ 25.1 µM) | ≤ 1 | 124 | – | –
6 | N[C@@H]1C[C@H](N)CN(c2nc(N3CCNCC3)nc(N3C[C@H](N)C[C@H](N)C3)n2)C1 | 23 | – | – | – | – | – | –
7 | N[C@@H]1C[C@H](N)CN(c2nc(Nc3ccc(NC(=O)c4ccc5ccccc5c4O)cc3)nc(N3C[C@H](N)C[C@H](N)C3)n2)C1 | 10 | 1 (≈ 1.71 µM) | 2 (≈ 3.43 µM) | 1 (≈ 1.71 µM) | 140 | – | –
8 | N[C@@H]1C[C@H](N)CN(c2nc(Nc3ccccc3)nc(N3C[C@H](N)C[C@H](N)C3)n2)C1 | 7 | > 64 | > 64 | – | – | > 64 | –
9 | N[C@@H]1C[C@H](N)CN(c2nc(Nc3ccc(S(N)(=O)=O)cc3)nc(N3C[C@H](N)C[C@H](N)C3)n2)C1 | 4 | > 64 | > 64 | – | – | > 64 | –
10 | N[C@@H]1C[C@H](N)CN(c2nc(Nc3ccc(C(=O)CC(=O)Nc4ccc(F)c(F)c4)cc3)nc(N3C[C@H](N)C[C@H](N)C3)n2)C1 | 9 | 4 (≈ 6.72 µM) | 16 (≈ 26.9 µM) | 1 (≈ 1.68 µM) | 179 | – | –
11 | N[C@@H]1C[C@H](N)CN(c2nc(Nc3cccc(C(F)(F)F)c3)nc(N3C[C@H](N)C[C@H](N)C3)n2)C1 | 5 | 32 (≈ 68.6 µM) | 16 (≈ 34.3 µM) | – | – | 32 (≈ 68.6 µM) | 4 (≈ 8.57 µM)
12 | O=C(N[C@H](CO)[C@H](O)c1ccc([N+](=O)[O-])cc1)C(Cl)Cl [CHLORAMPHENICOL] | 1.5 | 4 (≈ 12.4 µM) | 8 (≈ 24.8 µM) | > 64 | – | – | –

Further lines, with some results ahead:

Row | IC50 (Escherichia coli [1]) [µM] | MIC (Escherichia coli [2]) [µg/mL] | MIC (Staphylococcus aureus) [µg/mL] | MIC (Pseudomonas aeruginosa) [µg/mL] | SMILES | CC50 at 72 h [3] [µM] | MIC (Escherichia coli [4]) [µg/mL] | MIC (Escherichia coli [5]) [µg/mL]
13 | 5 | 8 (≈ 14.6 µM) | – | – | N[C@@H]1C[C@H](N)CN(c2nc(Nc3ccc(NC(=O)c4cccc(O)c4O)cc3)nc(N3C[C@H](N)C[C@H](N)C3)n2)C1 | – | – | –
14 | 32 | – | – | – | N[C@@H]1C[C@H](N)CN(c2nc(Nc3ccncc3)nc(N3C[C@H](N)C[C@H](N)C3)n2)C1 | – | – | –
15 | 36 | – | – | – | N[C@@H]1C[C@H](N)CN(c2nc(NC3CCNC3)nc(N3C[C@H](N)C[C@H](N)C3)n2)C1 (stereo partly specified) | – | – | –
16 | 9 | – | – | – | N[C@@H]1C[C@H](N)CN(c2nc(Nc3ccon3)nc(N3C[C@H](N)C[C@H](N)C3)n2)C1 | – | – | –
17 | 6 | 4 (≈ 6.29 µM) | 16 (≈ 25.2 µM) | ≤ 1 | N[C@@H]1C[C@H](N)CN(c2nc(Nc3ccc(C(=O)CC(=O)Nc4ccc(-c5ccccc5)cc4)cc3)nc(N3C[C@H](N)C[C@H](N)C3)n2)C1 | 24 | – | –
18 | 8 | 4 (≈ 6.69 µM) | – | – | COc1cc(Nc2nc(N3C[C@H](N)C[C@H](N)C3)nc(N3C[C@H](N)C[C@H](N)C3)n2)ccc1NC(=O)c1ccc(Cl)cc1O | – | – | –
19 | 2.8 | – | – | – | CN(C)[C@@H]1C(O)=C(C(N)=O)C(=O)[C@@]2(O)C(O)=C3C(=O)c4c(O)cccc4[C@@](C)(O)[C@H]3C[C@@H]12 [TETRACYCLINE] | – | – | –
20 | 63 | – | – | – | N[C@@H]1C[C@H](N)CN(c2nc(NC3CCCCC3)nc(N3C[C@H](N)C[C@H](N)C3)n2)C1 | – | – | –
21 | 4 | 4 (≈ 5.94 µM) | 16 (≈ 23.7 µM) | 16 (≈ 23.7 µM) | Cc1ccc(S(=O)(=O)N(Cc2ccccc2)c2ccc(Nc3nc(N4C[C@H](N)C[C@H](N)C4)nc(N4C[C@H](N)C[C@H](N)C4)n3)cc2O)cc1 | 68 | – | –
22 | 9 | 2 (≈ 3.13 µM) | – | – | N[C@@H]1C[C@H](N)CN(c2nc(Nc3ccc(C(=O)N4CCc5cc(Br)ccc54)c(O)c3)nc(N3C[C@H](N)C[C@H](N)C3)n2)C1 | – | – | –
23 | 10 | 2 (≈ 3.66 µM) | 2 (≈ 3.66 µM) | – | Cc1ccc2nc(-c3ccc(Nc4nc(N5C[C@H](N)C[C@H](N)C5)nc(N5C[C@H](N)C[C@H](N)C5)n4)cc3)sc2c1 | 33 | – | –
24 | 92 | – | – | – | Nc1nc(N2C[C@H](N)C[C@H](N)C2)nc(N2C[C@H](N)C[C@H](N)C2)n1 | – | – | –
25 | 14 | 64 (≈ 146 µM) | – | – | N[C@@H]1C[C@H](N)CN(c2nc(Nc3ccc4[nH]cnc4c3)nc(N3C[C@H](N)C[C@H](N)C3)n2)C1 | – | – | –

From ChEMBL document CHEMBL1137289, “Structure-activity relationships of novel antibacterial translation inhibitors: 3,5-diamino-piperidinyl triazines” (Bioorg Med Chem Lett, 2006)
